A short description of the data set: Determination of the protein binding (90% serum, 30 kDa filter, HPLC). The conditions noted are these: serum. In kind it is in vitro ADME. As for the experimental part:
Protein binding assays were performed as follows. The purified peptides were mixed with 90% serum and centrifuged through a 30 kDa filter. The ultra-filtrate and the non filtrated serum samples were quantified by HPLC measurements and the protein binding was subsequently calculated.

Molecules are shown by their SMILES. Where a SMILES comes first, the peptide text is derived from it. Bridges are numbered along the chain shown (N, C = ends).

The source of these data is patent US20160158317A1, “Antimicrobial Peptide Variants and Polynucleotides Encoding Same” (Adenium Biotech A/S, priority 2010, published 2016).

In general, fraction unbound refers to free concentration divided by total concentration. A high value points to much free substance.

For `CC(C)[C@@H]1NC(=O)CNC(=O)[C@H](CC(N)=O)NC(=O)[C@H](CCCNC(=N)N)NC(=O)[C@H](Cc2ccc(O)cc2)NC(=O)[C@H](C(C)C)NC(=O)[C@@H]2CSSC[C@H](NC(=O)[C@H](CCCNC(=N)N)NC(=O)[C@H](CCCNC(=N)N)NC1=O)C(=O)N[C@@H](Cc1ccc(O)cc1)C(=O)N[C@@H](CCCNC(=N)N)C(=O)N[C@@H](CCCNC(=N)N)C(=O)N[C@H](C(=O)N[C@@H](CC(N)=O)C(=O)O)CSSC[C@H](NC(=O)[C@H](Cc1ccccc1)NC(=O)CN)C(=O)NCC(=O)N[C@@H](Cc1c[nH]cn1)C(=O)N[C@@H](C(C)C)C(=O)N2` [compound 155] (H-GFCGHVCVYRNGVRRCYRRCN-OH; disulfide 3-20, 7-16 (inferred); N-terminus and C-terminus assumed), the fraction unbound is 0.17. The value for `CC(C)[C@@H]1NC(=O)CNC(=O)[C@H](CC(N)=O)NC(=O)[C@H](CCCNC(=N)N)NC(=O)[C@H](Cc2ccc(O)cc2)NC(=O)[C@H](C(C)C)NC(=O)[C@@H]2CSSC[C@H](NC(=O)[C@H](CC(N)=O)NC(=O)[C@H](CCCNC(=N)N)NC1=O)C(=O)N[C@@H](Cc1ccc(O)cc1)C(=O)N[C@@H](CCCNC(=N)N)C(=O)N[C@@H](CCCNC(=N)N)C(=O)N[C@H](C(=O)N[C@@H](CC(N)=O)C(=O)O)CSSC[C@H](NC(=O)[C@H](Cc1ccccc1)NC(=O)CN)C(=O)N[C@@H](Cc1c[nH]c3ccccc13)C(=O)N[C@@H](Cc1ccc(O)cc1)C(=O)N[C@@H](C(C)C)C(=O)N2` [compound 41] (H-GFCWYVCVYRNGVRNCYRRCN-OH; disulfide 3-20, 7-16 (inferred); N-terminus and C-terminus assumed) was 0.03; that for `CC(C)[C@@H]1NC(=O)CNC(=O)[C@H](CC(N)=O)NC(=O)[C@H](CCCNC(=N)N)NC(=O)[C@H](Cc2ccc(O)cc2)NC(=O)[C@H](C(C)C)NC(=O)[C@@H]2CSSC[C@H](NC(=O)[C@H](C(C)C)NC(=O)[C@H](CCCNC(=N)N)NC1=O)C(=O)N[C@@H](CCCNC(=N)N)C(=O)N[C@@H](CCCNC(=N)N)C(=O)N[C@@H](CCCNC(=N)N)C(=O)N[C@H](C(=O)N[C@@H](CC(N)=O)C(=O)O)CSSC[C@H](NC(=O)[C@H](Cc1ccccc1)NC(=O)CN)C(=O)N[C@@H](Cc1ccccc1)C(=O)N[C@@H](Cc1ccc(O)cc1)C(=O)N[C@@H](C(C)C)C(=O)N2` [compound 56] (H-GFCFYVCVYRNGVRVCRRRCN-OH; disulfide 3-20, 7-16 (inferred); N-terminus and C-terminus assumed) was 0.06. Consider `CC(C)[C@@H]1NC(=O)CNC(=O)[C@H](CC(N)=O)NC(=O)[C@H](CCCNC(=N)N)NC(=O)[C@H](Cc2ccc(O)cc2)NC(=O)[C@H](C(C)C)NC(=O)[C@@H]2CSSC[C@H](NC(=O)[C@H](C(C)C)NC(=O)[C@H](CCCNC(=N)N)NC1=O)C(=O)N[C@@H](Cc1ccc(O)cc1)C(=O)N[C@@H](CCCNC(=N)N)C(=O)N[C@@H](CCCNC(=N)N)C(=O)N[C@H](C(=O)N[C@H](C(=O)O)[C@@H](C)O)CSSC[C@H](NC(=O)[C@H](Cc1ccccc1)NC(=O)CN)C(=O)N[C@@H](Cc1c[nH]c3ccccc13)C(=O)N[C@@H](Cc1ccc(O)cc1)C(=O)N[C@@H](C(C)C)C(=O)N2` [compound 54] (H-GFCWYVCVYRNGVRVCYRRCT-OH; disulfide 3-20, 7-16 (inferred); N-terminus and C-terminus assumed), for which the fraction unbound is 0.01. The value for `CC(C)[C@@H]1NC(=O)CNC(=O)[C@H](CC(N)=O)NC(=O)[C@H](CCCNC(=N)N)NC(=O)[C@H](Cc2ccc(O)cc2)NC(=O)[C@H](C(C)C)NC(=O)[C@@H]2CSSC[C@H](NC(=O)[C@H](C(C)C)NC(=O)[C@H](CCCNC(=N)N)NC1=O)C(=O)N[C@@H](Cc1ccc(O)cc1)C(=O)N[C@@H](CCCNC(=N)N)C(=O)N[C@@H](CCCNC(=N)N)C(=O)N[C@H](C(=O)N[C@@H](CC(N)=O)C(=O)O)CSSC[C@H](NC(=O)[C@H](Cc1ccccc1)NC(=O)CN)C(=O)NCC(=O)N[C@@H](Cc1c[nH]cn1)C(=O)N[C@@H](C(C)C)C(=O)N2` [compound 60] (H-GFCGHVCVYRNGVRVCYRRCN-OH; disulfide 3-20, 7-16 (inferred); N-terminus and C-terminus assumed) was 0.36. The value for `CC(C)[C@@H]1NC(=O)[C@H](CCCNC(=N)N)NC(=O)[C@H](C)NC(=O)CNC(=O)[C@H](CC(N)=O)NC(=O)[C@H](CCCNC(=N)N)NC(=O)[C@H](Cc2ccc(O)cc2)NC(=O)[C@H](C(C)C)NC(=O)[C@@H]2CSSC[C@H](NC1=O)C(=O)N[C@@H](Cc1ccc(O)cc1)C(=O)N[C@@H](CCCNC(=N)N)C(=O)N[C@@H](CCCNC(=N)N)C(=O)N[C@H](C(=O)N[C@@H](CC(N)=O)C(=O)O)CSSC[C@H](NC(=O)[C@H](Cc1ccccc1)NC(=O)CN)C(=O)N[C@@H](Cc1c[nH]c3ccccc13)C(=O)N[C@@H](Cc1ccc(O)cc1)C(=O)N[C@@H](C(C)C)C(=O)N2` [compound 29] (H-GFCWYVCVYRNGARVCYRRCN-OH; disulfide 3-20, 7-16 (inferred); N-terminus and C-terminus assumed) was 0.01. Take `CC(C)[C@@H]1NC(=O)CNC(=O)CNC(=O)[C@H](CCCNC(=N)N)NC(=O)[C@H](Cc2ccc(O)cc2)NC(=O)[C@H](C(C)C)NC(=O)[C@@H]2CSSC[C@H](NC(=O)[C@H](C(C)C)NC(=O)[C@H](CCCNC(=N)N)NC1=O)C(=O)N[C@@H](Cc1c[nH]cn1)C(=O)N[C@@H](CCCNC(=N)N)C(=O)N[C@@H](CCCNC(=N)N)C(=O)N[C@H](C(=O)N[C@@H](CC(N)=O)C(=O)O)CSSC[C@H](NC(=O)[C@H](Cc1ccccc1)NC(=O)CN)C(=O)N[C@@H](Cc1c[nH]c3ccccc13)C(=O)N[C@@H](CC(N)=O)C(=O)N[C@@H](C(C)C)C(=O)N2` [compound 231] (H-GFCWNVCVYRGGVRVCHRRCN-OH; disulfide 3-20, 7-16 (inferred); N-terminus and C-terminus assumed): the fraction unbound was 0.34. For `CC(C)[C@@H]1NC(=O)[C@H](Cc2c[nH]cn2)NC(=O)[C@H](Cc2c[nH]c3ccccc23)NC(=O)[C@@H](NC(=O)[C@H](Cc2ccccc2)NC(=O)CN)CSSC[C@@H](C(=O)N[C@@H](CC(N)=O)C(=O)O)NC(=O)[C@H](CCCNC(=N)N)NC(=O)[C@H](CCCNC(=N)N)NC(=O)[C@H](Cc2ccc(O)cc2)NC(=O)[C@@H]2CSSC[C@H](NC1=O)C(=O)N[C@@H](C)C(=O)N[C@@H](CCCNC(=N)N)C(=O)N[C@@H](CCCNC(=N)N)C(=O)N[C@@H](CC(N)=O)C(=O)NCC(=O)N[C@@H](C)C(=O)N[C@@H](CCCNC(=N)N)C(=O)N[C@@H](C(C)C)C(=O)N2` [compound 394] (H-GFCWHVCARRNGARVCYRRCN-OH; disulfide 3-20, 7-16 (inferred); N-terminus and C-terminus assumed), the fraction unbound was 0.2. In the case of `CC(C)[C@@H]1NC(=O)CNC(=O)[C@H](CC(N)=O)NC(=O)[C@H](CCCNC(=N)N)NC(=O)[C@H](Cc2ccc(O)cc2)NC(=O)[C@H](C(C)C)NC(=O)[C@@H]2CSSC[C@H](NC(=O)[C@H](Cc3c[nH]c4ccccc34)NC(=O)[C@H](CCCNC(=N)N)NC1=O)C(=O)N[C@@H](Cc1c[nH]cn1)C(=O)N[C@@H](CCCNC(=N)N)C(=O)N[C@@H](CCCNC(=N)N)C(=O)N[C@H](C(=O)N[C@@H](CC(N)=O)C(=O)O)CSSC[C@H](NC(=O)[C@H](Cc1ccccc1)NC(=O)CN)C(=O)N[C@@H](Cc1c[nH]c3ccccc13)C(=O)N[C@@H](CC(N)=O)C(=O)N[C@@H](C(C)C)C(=O)N2` [compound 253] (H-GFCWNVCVYRNGVRWCHRRCN-OH; disulfide 3-20, 7-16 (inferred); N-terminus and C-terminus assumed) it was 0.06; in that of `CC(C)[C@@H]1NC(=O)CNC(=O)[C@H](CC(N)=O)NC(=O)[C@H](CCCNC(=N)N)NC(=O)[C@H](Cc2ccc(O)cc2)NC(=O)[C@H](C(C)C)NC(=O)[C@@H]2CSSC[C@H](NC(=O)[C@H](CO)NC(=O)[C@H](CCCNC(=N)N)NC1=O)C(=O)N[C@@H](Cc1ccc(O)cc1)C(=O)N[C@@H](CCCNC(=N)N)C(=O)N[C@@H](CCCNC(=N)N)C(=O)N[C@H](C(=O)N[C@@H](CC(N)=O)C(=O)O)CSSC[C@H](NC(=O)[C@H](Cc1ccccc1)NC(=O)CN)C(=O)N[C@@H](Cc1c[nH]c3ccccc13)C(=O)N[C@@H](Cc1ccc(O)cc1)C(=O)N[C@@H](C(C)C)C(=O)N2` [compound 44] (H-GFCWYVCVYRNGVRSCYRRCN-OH; disulfide 3-20, 7-16), 0.15.

`CC(C)[C@@H]1NC(=O)[C@H](CCCNC(=N)N)NC(=O)[C@H](Cc2c[nH]cn2)NC(=O)CNC(=O)[C@H](CC(N)=O)NC(=O)[C@H](CCCNC(=N)N)NC(=O)[C@H](Cc2ccc(O)cc2)NC(=O)[C@H](C(C)C)NC(=O)[C@@H]2CSSC[C@H](NC1=O)C(=O)N[C@@H](Cc1c[nH]cn1)C(=O)N[C@@H](CCCNC(=N)N)C(=O)N[C@@H](CCCNC(=N)N)C(=O)N[C@H](C(=O)N[C@@H](CC(N)=O)C(=O)O)CSSC[C@H](NC(=O)[C@H](Cc1ccccc1)NC(=O)CN)C(=O)N[C@@H](Cc1c[nH]c3ccccc13)C(=O)N[C@@H](CC(N)=O)C(=O)N[C@@H](C(C)C)C(=O)N2` [compound 237] (H-GFCWNVCVYRNGHRVCHRRCN-OH; disulfide 3-20, 7-16 (inferred); N-terminus and C-terminus assumed): the fraction unbound is 0.6. The compound `CC(C)[C@@H]1NC(=O)[C@H](CC(N)=O)NC(=O)[C@H](Cc2c[nH]c3ccccc23)NC(=O)[C@@H](NC(=O)[C@H](Cc2ccccc2)NC(=O)CN)CSSC[C@@H](C(=O)N[C@@H](CC(N)=O)C(=O)O)NC(=O)[C@H](CCCNC(=N)N)NC(=O)[C@H](CCCNC(=N)N)NC(=O)[C@H](Cc2ccc(O)cc2)NC(=O)[C@@H]2CSSC[C@H](NC1=O)C(=O)N[C@@H](C)C(=O)N[C@@H](Cc1ccc(O)cc1)C(=O)N[C@@H](CCCNC(=N)N)C(=O)N[C@@H](CC(N)=O)C(=O)NCC(=O)N[C@@H](CCCCN)C(=O)N[C@@H](CCCNC(=N)N)C(=O)N[C@@H](C)C(=O)N2` [compound 411] (H-GFCWNVCAYRNGKRACYRRCN-OH; disulfide 3-20, 7-16 (inferred); N-terminus and C-terminus assumed) had a fraction unbound of 0.14.
